Test results as given in US12297178B2, “Triazole derivative and use thereof” (GYEONGGIDO BUSINESS & SCIENCE ACCELERATOR, priority 2017, dated 2025).

How the values were obtained:
[1] = tested on: UCP1 (uncoupling protein-1); experiment: Adipocyte differentiation induction experiment: relative UCP1 expression by real time PCR in C3H10T1/2 cells differentiated into white adipocytes; assay type: cell-based; conditions: compound 20 μM; for Relative expression level of UCP1 compared to DMSO: relative to DMSO control; for Relative expression level of UCP1 compared to butein: relative to butein 20 μM control
Experimental: C3H10T1/2 cells were commercially purchased, and then differentiated into white adipocytes. The differentiated adipocytes were treated with the compounds obtained in the Preparation Examples at a concentration of 20 μM. A group treated with DMSO at a concentration of 20 μM and a group treated with butein at a concentration of 20 μM were used as a control group, respectively.
While the UCP1 (uncoupling protein-1) is contained in the mitochondria of brown adipocytes or beige adipocytes, it is difficult to find UCP1 in white adipocytes having little mitochondria. Therefore, by measuring the expression level of UCP1, it is possible to determine whether preadipocytes have differentiated into white adipocytes or otherwise brown adipocytes or beige adipocytes. The higher the expression level of UCP1, the more differentiated preadipocytes into brown adipocytes or beige adipocytes.

[2] = tested on: UCP1; conditions: reported in US Patent Publication No. US 2015/0374643 A1; cited from earlier work

| SMILES | Relative expression level of UCP1 compared to DMSO [1] | Relative expression level of UCP1 compared to butein [1] | Effect on expression level of UCP1 [2] |
| --- | --- | --- | --- |
| Oc1ccc(-n2cc(-c3ccc(O)c(O)c3)nn2)cc1 [Compound 4, 4-(1-(4-hydroxyphenyl)-1H-1,2,3-triazole-4-yl)benzene-1,2-diol] | 2.1 | 18.6 |  |
| Nc1c(-c2ccc(Cl)cc2)nnn1-c1ccc(O)c(O)c1 [Compound 24, 4-(5-amino-4-(4-chlorophenyl)-1H-1,2,3-triazole-1-yl)benzene-1,2-diol] | 10.6 | 29.7 |  |
| OCCOc1ccc(-n2cc(-c3ccc(O)c(O)c3)nn2)cc1 [Compound 15, 4-(1-(4-(2-hydroxyethoxy)phenyl)-1H-1,2,3-triazole-4-yl)benzene-1,2-diol] | 1.6 | 26.9 |  |
| C[NH+](C)CCOc1ccc(-n2cc(-c3ccc(O)c(O)c3)nn2)cc1.[Cl-] [Compound 16, 4-(1-(4-(2-(dimethylamino)ethoxy)phenyl)-1H-1,2,3-triazole-4-yl)benzene-1,2-diol Hydrochloride] | 2.3 | 37.0 |  |
| Cc1cc(-n2cc(-c3ccc(O)c(O)c3)nn2)ccc1O [Compound 5, 4-(1-(4-hydroxy-3-methylphenyl)-1H-1,2,3-triazole-4-yl)benzene-1.2-diol] | 2.3 | 20.6 |  |
| Oc1ccc(-c2cn(-c3ccc(Cl)cc3)nn2)cc1O [Compound 2, 4-(1-(4-chlorophenyl)-1H-1,2,3-triazole-4-yl)benzene-1,2-diol] | 6.6 | 18.6 |  |
| Oc1ccc(-c2cn(-c3ccc(F)cc3)nn2)cc1O [Compound 3, 4-(1-(4-fluorophenyl)-1H-1,2,3-triazole-4-yl)benzene-1,2-diol] | 12.2 | 34.1 |  |
| COc1ccc(-n2cc(-c3ccc(O)c(O)c3)nn2)c(OC)c1 [Compound 1, 4-(1-(2,4-dimethoxyphenyl)-1H-1,2,3-triazole-4-yl)benzene-1.2-diol] | 3.5 | 12.2 |  |
| O=C(/C=C/c1ccc(O)c(O)c1)c1ccc(O)cc1O [butein] |  |  | increases the expression level of UCP1 |
